Laboratory results taken from patent US20210059927A1, “COSMETIC COMPOSITION COMPRISING DENDROBIUM CANDIDUM FLOWER EXTRACT” (LG HOUSEHOLD & HEALTH CARE LTD., priority 2017, published 2021).

Columns and labels:
[1] = system: type 1 collagen in human-derived fibroblasts; assay: Synthesis promotion effect of type 1 collagen in human-derived fibroblasts (PICP EIA kit); assay type: cell-based; settings: positive control 10 ng/ml, relative to negative control; n=4
Protocol: In order to confirm the wrinkle improvement effect through promoting the synthesis of type 1 collagen of each extract prepared in Preparation Examples 1 to 9, collagen synthesis rate was measured by adding the samples obtained in Preparation Examples 1 to 9 to the culture solution of human-derived fibroblasts. The synthesis of collagen was quantified using a PICP EIA kit (Procollagen Type I C-Peptide Enzyme ImmunoAssay KIT). After adding the sample to a culture medium of fibroblasts (DMEM medium) at a final concentration of 0.1% and culturing for 48 hours, cultures were taken and the degree of collagen synthesis of type 1 collagen at each concentration was measured at 450 nm using a spectrophotometer with PICP EIA kit.
For comparison of the effects, the degree of collagen synthesis was measured in the same manner with respect to a culture medium (negative control group) of untreated fibroblasts and the sample (positive control) added with TGF-β to a final concentration of 10 ng/mL.
Collagen synthesis rate (%) was calculated as the ratio of the collagen production amount relative to the negative control, and the results are shown in Table 1 below.

RAW264.7 cell line = assay: Inhibitory effect of nitric oxide (NO) production, GRIESS method, LPS-stimulated; assay type: cell-based, mouse; settings: positive control 20 ppm, LPS 1 ppm, 24 hours, relative to LPS-only group; n=4
Protocol: In order to confirm the anti-inflammatory effect and skin trouble improvement effect of each extract prepared in Preparation Examples 1 to 9, NO production inhibitory effect was measured by the GRIESS method using RAW264.7 cell line (ATCC number: CRL-2278).
Specifically, RAW264.7 cells, which are macrophages of mice, were subcultured several times, and cultured for 24 hours after being placed in a 24-well plate such that 3×10^5 cells were placed in one well. After exchanging with a cell medium containing the sample at a final concentration of 0.1%, an untreated medium was used as a negative group and for a positive control group, 20 ppm of L-NG-monomethylarginine (L-NMMA) was used, which is a NO-production inhibitor. 1 ppm of lipopolysaccharide was treated as a stimulus source and cultured for 24 hours. The supernatant was transferred to a 96-well plate by 100 μL, and the GRIESS solution was added by 100 μL to react at room temperature for 10 minutes, and the NO inhibitory effect was determined by measuring the absorbance at 540 nm.
The NO production inhibitory rate (%) was calculated as a relative ratio of the amount of reduced NO compared to the LPS-only treatment group, and the results are shown in Table 3 below.

B-16 mouse melanoma cell = assay: Inhibitory effect of melanin production at cellular level; assay type: cell-based; settings: positive control 100 ppm, 3 days, relative to negative control; n=4
Protocol: In order to confirm the brightening effect through the inhibition of melanin production of each extract prepared in Preparation Examples 1 to 9, the samples obtained in Preparation Examples 1 to 9 were added to a culture medium of mouse melanoma cells (B-16 mouse melanoma cell) to measure the total amount of melanin (Lotan R. et al., Cancer Res. 40:3345-3350, 1980). Prior to measuring the total amount of melanin, brightening evaluation was performed at non-toxic concentrations by first evaluating the toxicity of mouse melanoma cells. […]
Thereafter, the cells were trypsin-treated, detached from the culture vessel, and centrifuged, and melanin was extracted. The detached cells were added with 1 mL of sodium hydroxide solution (1N concentration), boiled for 10 minutes to dissolve the melanin, and the absorbance was measured at 405 nm using a spectrophotometer to measure the amount of melanin produced.
The amount of melanin was measured by the absorbance of the unit cell count (1×10^6 cells), and the melanin production inhibition rate (%) was calculated as the total amount of melanin relative to the negative control group, and the results are shown in Table 2 below.

Aquaporin 3 = assay: Moisturizing gene expression by qRT-PCR in HaCaT: AQP3; assay type: cell-based, human; settings: mRNA, positive control 10 ng/ml, negative control = 1.00, n=4
Protocol: In order to confirm the skin moisturizing effect of each extract prepared in Preparation Examples 1 to 9, gene expression related to moisturizing was measured using the cells cultured as below.
Human keratinocytes (HaCaT) were in a 6-hole cell culture plate 2×10^5 each, and then cultured using Dulbecco's Modified Eagle's medium (DMEM, Gibco, Co.) including fetal bovine serum (FBS) and antibiotics for 24 hours.
After culturing the cells, it was replaced with DMEM, High Glucose, no Glutamine, no calcium (Gibco, USA), and then the samples obtained in Preparation Examples 1 to 9 were treated at a concentration of 0.1% for 24 hours. […]
2.5 μg of RNA was quantified and reverse transcription was performed using cDNA synthesis kit (PhileKorea, Korea). […] Quantitative real time PCR (qRT-). […]
The experimental results obtained by qRT-PCT were shown by calculating with the ΔΔCT method (Livak K J, Schmittgen T D: Analysis of relative gene expression data using real-time quantitative PCR and the 2(-Delta Delta C(T)) Method, Methods, 25, 402-408(2001)) based on housekeeping gene and glyceraldehyde-3-phosphate dehydrogenase (GAPDH). To compare effects, moisturizing gene expression was measured in the same manner for a negative control group without treating samples and a positive control group treated with EGF 10 ng/ml and Ca^2+3 mM, respectively. […]

TGF-β
Collagen synthesis rate (%) [1]: 15.21%

CNC(=N)NCCC[C@H](N)C(=O)O [L-NMMA, L-NG-monomethylarginine]
NO production inhibitory rate (%) (RAW264.7 cell line): 51.85%

OC[C@H]1O[C@@H](Oc2ccc(O)cc2)[C@H](O)[C@@H](O)[C@@H]1O [Albutin]
Melanin production inhibition rate (%) (B-16 mouse melanoma cell): 33.13%

EGF: Positive control for moisturizing gene expression, 10 ng/ml
Aquaporin 3 (fold) (Aquaporin 3): 3.27 fold
